Earlier results as cited in patent US10980267B2, “Molecular particle superior delivery system” (priority 2018, dated 2021).

Legend:
[1] = especially child seizures
[2] = in humans, WHO report
[3] = consumed in foods and drinks

C=C(C)[C@@H]1CCC(C)=C[C@H]1c1c(O)cc(CCCCC)cc1O [CBD, cannabidiol]
effect on number of seizures [1]: reduce the number of seizures | abuse or dependence potential [2]: no effects indicative of any abuse or dependence potential | safety of consumption / toxicity [3]: completely safe to consume in foods and drinks and is considered to be non-toxic
